Laboratory results reported in patent publication US20190119282A1, “IMIDAZOPYRIDAZINES USEFUL AS INHIBITORS OF THE PAR-2 SIGNALING PATHWAY” (Vertex Pharmaceuticals Incorporated, priority 2013, published 2019).

Experiments:
[1] = biological target: T1, PAR2 (HT-29 cells, SLIGKV activation) (Homo sapiens, UniProt P55085); assay: Ca FLIPR TETRA assay, ANTAGONIST mode, stimulation with 8 μM SLIGKV; type: cell-based; details: for IC50: HT-29 cells
T1 construct: host or cells: HT-29 cells
T1 sequence (P55085 26-397): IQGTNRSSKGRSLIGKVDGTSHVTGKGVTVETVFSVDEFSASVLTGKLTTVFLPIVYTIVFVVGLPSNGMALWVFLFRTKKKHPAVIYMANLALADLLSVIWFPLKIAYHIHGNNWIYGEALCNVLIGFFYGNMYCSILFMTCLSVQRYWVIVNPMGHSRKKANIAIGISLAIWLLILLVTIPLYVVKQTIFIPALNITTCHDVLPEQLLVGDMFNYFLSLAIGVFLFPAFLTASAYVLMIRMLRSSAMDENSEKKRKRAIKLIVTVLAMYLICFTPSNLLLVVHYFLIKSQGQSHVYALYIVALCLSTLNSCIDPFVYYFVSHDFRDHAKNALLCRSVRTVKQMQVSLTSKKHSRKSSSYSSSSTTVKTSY
Protocol: (§1) Example 60: Protocol for Testing PAR2 Compounds in ANTAGONIST Mode Using the Ca FLIPR^TETRA Assay (384 Well)
(§2) 23000 HT-29 cells (ATCC# HTB-38) were plated in 384-well black, transparent-flat bottom plates and incubated in 25 uL of 1% FBS/McCoy's media ON at 37° C. under an atmosphere of 5% CO2. The following day, 25 uL FLIPR calcium 5 Molecular Devices assay reagent (Cat: R-8186) was added. Plates were incubated at 37° C. and r. t. for 45 min and 15 min, respectively. Compounds dilutions were prepared in 100% DMSO using a Biomek FX and diluted 20-fold in HBSS and then 5.5 uL was added directly to the cells by the FLIPR^TETRA (10× dilution) using FLIPR Tetra Pipette tips, black, non-sterile, 384 Molecular Devices (Cat: 9000-0764).
(§3) A first read was performed to determine whether the test compounds on their own can activate Ca2+ responses.
(§4) The cells were incubated with the compounds for 30 min at r. t. and then read in ANTAGONIST mode in the same plate by stimulating with 6.2 uL of a fixed concentration of the activator: final concentrations: 8 μM SLIGKV, 1 U/mL Thrombin, 3.1 U/mL trypsin, or 0.6 μM UTP.

[2] = system: Thrombin-stimulated Ca2+ response in HT-29 cells; assay: Ca FLIPR TETRA assay, ANTAGONIST mode, stimulation with 1 U/mL Thrombin; type: cell-based, human; details: for IC50: Homo sapiens, HT-29 cells
Protocol: as §1, §2, §3, §4

[3] = system: UTP-stimulated Ca2+ response in HT-29 cells; assay: Ca FLIPR TETRA assay, ANTAGONIST mode, stimulation with 0.6 μM UTP; type: cell-based, human; details: for IC50: Homo sapiens, HT-29 cells
Protocol: as §1, §2, §3, §4

[4] = biological target: T2, PAR2 (HT-29 cells, trypsin activation) (Homo sapiens, UniProt P55085); assay: Ca FLIPR TETRA assay, ANTAGONIST mode, stimulation with 3.1 U/mL trypsin; type: cell-based; details: HT-29 cells
T2 construct: host or cells: HT-29 cells
T2 sequence (P55085 26-397): T1 sequence (P55085 26-397)
Protocol: as §1, §2, §3, §4

[5] = antagonist mode, stimulation with 8 μM SLIGKV
[6] = antagonist mode, stimulation with 1 U/mL Thrombin
[7] = antagonist mode, stimulation with 0.6 μM UTP
[8] = antagonist mode, stimulation with 3.1 U/mL trypsin
[9] = stimulation with 1 U/mL Thrombin
[10] = stimulation with 3.1 U/mL trypsin
[11] = antagonist mode, 1 U/mL Thrombin
[12] = antagonist mode, 3.1 U/mL trypsin

| Compound | IC50 [1, 5] [nM] | IC50 [2, 6] [nM] | IC50 [3, 7] [nM] | IC50 [4, 8] [nM] | further results |
| --- | --- | --- | --- | --- | --- |
| COCC(C)(C)c1cc(-c2ccc(F)cc2)nn2cc(C(=O)N3CCNC(=O)C3(C)C)nc12 [Compound I-193] | 5.3 | 10000 | 19000 | 46 |  |
| CC(C)(C)c1cc(-c2ccc(Cl)cc2)nn2cc(C(=O)N3CCN(C(=O)c4ccccn4)CC3(C)C)nc12 [Compound I-444] | 0.8 | > 1000 | > 1000 | 1.3 |  |
| CCc1cc(-c2ccc(F)cc2)nn2cc(C(=O)N3CCN(C(=O)[C@H](O)C(C)C)CC3(C)C)nc12 [Compound I-166] |  |  |  |  | IC50 ([1]; stimulation with 8 μM SLIGKV): 16 nM; IC50 [2, 9]: 23000 nM; IC50 ([3]; stimulation with 0.6 μM UTP): 27000 nM; IC50 [4, 10]: 53 nM |
| Cc1cc(-c2cc(C(C)C)c3nc(C(=O)N4CN(Cc5ccccc5)C(=O)C4(C)C)cn3n2)ccc1F [Compound I-442, 3-benzyl-1-[6-(4-fluoro-3-methyl-phenyl)-8-isopropyl-imidazo[1,2-b]pyridazine-2-carbonyl]-5,5-dimethyl-imidazolidin-4-one] | 109 | > 1000 | > 1000 | 150 |  |
| CC(C)c1cc(-c2ccc(F)cc2)nn2cc(C(=O)N3CCN(C(=O)c4ccccn4)CC3(C)C)nc12 [Compound I-320] | 7.1 | > 1000 | > 1000 | 14.2 |  |
| CC(=O)N1CCN(C(=O)c2cn3nc(-c4ccc(F)cc4)cc(C(C)C)c3n2)C(C)(C)C1 [Compound I-512] | 23.5 | > 1000 | > 1000 | 53 |  |
| Cc1nnc(C(=O)N2CCN(C(=O)c3cn4nc(-c5ccc(Cl)c(F)c5)cc(C(C)(C)C)c4n3)C(C)(C)C2)o1 [Compound I-457] | 0.6 | > 1000 | > 1000 | 0.8 |  |
| Cc1ccc(-c2cc(C(C)(C)C)c3nc(C(=O)N4CCN(C(=O)c5ncccn5)CC4(C)C)cn3n2)cc1 [Compound I-392] | 1.4 | > 1000 | > 1000 | 2.5 |  |
| CCc1cc(-c2ccc(F)cc2)nn2cc(C(=O)N3CCN(C(=O)[C@H](O)C(C)(C)C)[C@@H](C)C3)nc12 [Compound I-172] |  |  |  |  | IC50 ([1]; stimulation with 8 μM SLIGKV): 22 nM; IC50 [2, 9]: 15000 nM; IC50 ([3]; stimulation with 0.6 μM UTP): 15000 nM; IC50 [4, 10]: 330 nM |
| Cc1ccc(-c2cc(C(C)C)c3nc(C(=O)N4CCN(C(=O)C5CC(C)(O)C5)CC4(C)C)cn3n2)cc1 (stereo not drawn) [Compound I-333] | 3.2 | > 1000 | > 1000 | 3.8 |  |
| Cc1cc(-c2ccc(F)cc2)nn2cc(C(=O)N3CCN(C(=O)[C@H](O)CC(C)(C)C)CC3(C)C)nc12 [Compound I-102] |  |  |  |  | IC50 ([1]; stimulation with 8 μM SLIGKV): 3 nM; IC50 [2, 9]: 17000 nM; IC50 ([3]; stimulation with 0.6 μM UTP): 23000 nM; IC50 [4, 10]: 8 nM |
| Cc1cn[nH]c1C(=O)N1CCN(C(=O)c2cn3nc(-c4ccc(F)cc4)cc(C(C)(C)C)c3n2)C(C)(C)C1 [Compound I-290] | 3.4 | 530 | 730 | 3.1 |  |
| CC(C)c1cc(-c2ccc(F)cc2)nn2cc(C(=O)N3CCN(C(=O)OC(C)(C)C)[C@@H](C)C3)nc12 [Compound I-96] |  |  |  |  | IC50 ([1]; stimulation with 8 μM SLIGKV): 44 nM; Thrombin % @ concentration ([2]; @ 50 (μM)): 52% @ 50; UTP % @ concentration ([3]; @ 50 (μM)): 66% @ 50; IC50 [4, 10]: 150 nM |
| CC(C)(C)c1cc(-c2ccc(F)cc2)nn2cc(C(=O)N3CCN(C(=O)[C@H]4C[C@@H](C(=O)O)C4)CC3(C)C)nc12 [Compound I-555, (1S,3S)-3-(4-(8-(tert-butyl)-6-(4-fluorophenyl)imidazo[1,2-b]pyridazine-2-carbonyl)-3,3-dimethylpiperazine-1-carbonyl)cyclobutane-1-carboxylic acid] |  |  |  |  | IC50 ([1]; antagonist mode, 8 μM SLIGKV): 4.2 nM; IC50 [2, 11]: > 1000 nM; IC50 ([3]; antagonist mode, 0.6 μM UTP): > 1000 nM; IC50 [4, 12]: 7.8 nM |
| Cc1cc(-c2cc(C(C)(C)C)c3nc(C(=O)N4CCN(C(=O)c5ccccn5)CC4(C)C)cn3n2)ccc1F [Compound I-386] | 1.7 | > 1000 | > 1000 | 2.6 |  |
| CC(C)(C)c1cc(-c2ccc(F)cc2)nn2cc(C(=O)N3CCN(C(=O)C4CC(C(=O)O)C4)CC3(C)C)nc12 (stereo not drawn) [Compound I-492] | 4 | 820 | 690 | 5.6 |  |

| Compound | IC50 [1, 5] [nM] | IC50 [2, 6] [nM] | IC50 [3, 7] [nM] | IC50 [4, 8] [nM] | further results |
| --- | --- | --- | --- | --- | --- |
| CC(C)C(O)C(=O)N1CCN(C(=O)c2cn3nc(-c4ccc(F)cc4)cc(C(F)(F)F)c3n2)C[C@@H]1C (stereo partly drawn) [Compound I-91] |  |  |  |  | IC50 ([1]; stimulation with 8 μM SLIGKV): 69 nM; IC50 [2, 9]: 26000 nM; IC50 ([3]; stimulation with 0.6 μM UTP): 20000 nM; IC50 [4, 10]: 1500 nM |
| CC(C)c1cc(-c2ccc(F)cc2)nn2cc(C(=O)N3CCN(C(=O)[C@H](O)C(C)C)[C@@H](C)C3)nc12 [Compound I-111] |  |  |  |  | IC50 ([1]; stimulation with 8 μM SLIGKV): 7 nM; IC50 [2, 9]: 20000 nM; IC50 ([3]; stimulation with 0.6 μM UTP): 19000 nM; IC50 [4, 10]: 15 nM |
| C[C@H]1C(=O)NCCN1C(=O)c1cn2nc(-c3ccc(F)cc3)cc(C(C)(C)C)c2n1 [Compound I-547] | 635 | > 1000 | > 1000 | > 1000 |  |
| CC(C)c1cc(-c2ccc(F)c(Cl)c2)nn2cc(C(=O)N3CCN(C(=O)[C@H]4C[C@@H](C(=O)O)C4)CC3(C)C)nc12 [Compound I-502] | 21 | > 1000 | > 1000 | 20 |  |
| CC(C)(C)c1cc(-c2ccc(C(F)(F)F)cc2)nn2cc(C(=O)N3CCN(C(=O)c4ccccn4)CC3(C)C)nc12 [Compound I-398] | 3.1 | > 1000 | > 1000 | 2.6 |  |
| CC(C)N1CCN(C(=O)c2cn3nc(-c4ccc(F)cc4)cc(C(C)(C)C)c3n2)C(C)(C)C1=O [Compound I-207] | 9.8 | > 1000 | > 1000 | 8.3 |  |
| CC1(C)CN(C(=O)C2CC(O)(C(F)(F)F)C2)CCN1C(=O)c1cn2nc(-c3ccc(F)cc3)cc(C3CCOCC3)c2n1 (stereo not drawn) [Compound I-204] | 42.5 | > 1000 | > 1000 | 93 |  |
| C[C@@H]1CN(c2cc(-c3ccc(F)cc3)nn3cc(C(=O)N4CCNC(=O)C4(C)C)nc23)C[C@H](C)O1 [Compound I-182] | 17.3 | 1140 | 1270 | 40.3 |  |
| CC(C)(C)c1cc(-c2ccc(F)cc2)nn2cc(C(=O)N3CCN(C(=O)c4n[nH]c(=O)[nH]4)CC3(C)C)nc12 [Compound I-357] | 3.3 | > 1000 | 890 | 4.4 |  |
| CC(C)(CC(=O)N1CCN(C(=O)c2cn3nc(-c4ccc(F)cc4)cc(C(C)(C)C)c3n2)C(C)(C)C1)C(=O)O [Compound I-561, 4-(4-(8-(tert-butyl)-6-(4-fluorophenyl)imidazo[1,2-b]pyridazine-2-carbonyl)-3,3-dimethylpiperazin-1-yl)-2,2-dimethyl-4-oxobutanoic acid] |  |  |  |  | IC50 ([1]; antagonist mode, 8 μM SLIGKV): 0.5 nM; IC50 [2, 11]: > 1000 nM; IC50 ([3]; antagonist mode, 0.6 μM UTP): > 1000 nM; IC50 [4, 12]: 0.7 nM |
| Cc1cc(-c2cc(C(C)(C)C)c3nc(C(=O)N4CCN(C(=O)c5ncccn5)CC4(C)C)cn3n2)ccc1F [Compound I-387] | 1.4 | > 1000 | > 1000 | 3.1 |  |
| Cc1cc(F)ccc1-c1cc(C(C)C)c2nc(C(=O)N3CCNC(=O)C3(C)C)cn2n1 [Compound I-478] | 790 | > 1000 | > 1000 |  |  |
| C[C@H]1CCCCN1C(=O)c1cn2nc(-c3ccc(F)cc3)cc(C(F)(F)F)c2n1 [Compound I-65] |  |  |  |  | SLIGKV % @ concentration ([1]; @ 1.9 (μM)): 56% @ 1.9; IC50 [2, 9]: > 50000 nM; IC50 ([3]; stimulation with 0.6 μM UTP): > 50000 nM |
| O=C1NCCN2CCN(C(=O)c3cn4nc(-c5ccc(F)cc5)cc(C(F)(F)F)c4n3)CC12 (stereo not drawn) [Compound I-58] |  |  |  |  | IC50 ([1]; stimulation with 8 μM SLIGKV): 1300 nM; IC50 [2, 9]: > 50000 nM; IC50 ([3]; stimulation with 0.6 μM UTP): > 50000 nM |
| C[C@H]1CN(C(=O)c2cn3nc(-c4ccc(F)cc4)cc(C(F)(F)F)c3n2)CCN1C(=O)c1ncc[nH]1 [Compound I-88] |  |  |  |  | IC50 ([1]; stimulation with 8 μM SLIGKV): 680 nM; IC50 [2, 9]: > 50000 nM; IC50 ([3]; stimulation with 0.6 μM UTP): > 50000 nM |
